In ChEMBL document CHEMBL6177955, “Design, synthesis and biological evaluation of Golgi-targeting anion transporters as inducers of Golgiphagy and apoptosis in cancer cells” (Eur J Med Chem, 2025):
Active and inactive are the calls of the source. The rule behind the calls is not given here.

Assays:
[1] = system: A2780; assay: Antiproliferative activity against human A2780 cells by MTT assay; type: functional, cell-based
[2] = system: HepG2; assay: Antiproliferative activity against human HepG2 cells by MTT assay; type: functional, cell-based
[3] = system: MCF7; assay: Antiproliferative activity against human MCF7 cells by MTT assay; type: functional, cell-based
[4] = system: HT-29; assay: Antiproliferative activity against human HT-29 cells by MTT assay; type: functional, cell-based
[5] = system: HCT-8; assay: Antiproliferative activity against human HCT-8 cells by MTT assay; type: functional, cell-based
[6] = system: HepG2; assay: Induction of apoptosis in human HepG2 cells assessed as viable cells at 5 uM measured after 24 hrs incubation by Propidium iodide/Annexin V-FITC analysis (reference value: 90.2%); type: functional; details: read-out: Activity
[7] = system: HepG2; assay: Induction of apoptosis in human HepG2 cells assessed as early apoptotic cells at 5 uM measured after 24 hrs incubation by Propidium iodide/Annexin V-FITC analysis (reference value: 2.90%); type: functional
[8] = system: HepG2; assay: Induction of apoptosis in human HepG2 cells assessed as late apoptotic cells at 5 uM measured after 24 hrs incubation by Propidium iodide/Annexin V-FITC analysis (reference value: 5.71%); type: functional
[9] = system: HepG2; assay: Induction of apoptosis in human HepG2 cells assessed as necrotic cells at 5 uM measured after 24 hrs incubation by Propidium iodide/Annexin V-FITC analysis (reference value: 1.14%); type: functional
[10] = system: Lipid bilayer; assay: Vesicular anionophoric activity in large unilamellar vesicle membrane derived from egg-yolk L-alpha-phosphatidylcholine assessed as induction of relative efflux of chloride ions measured up to 300 seconds by using chloride-selective electrode
[11] = system: Lipid bilayer; assay: Vesicular anionophoric activity in large unilamellar vesicle membrane derived from egg-yolk L-alpha-phosphatidylcholine assessed as induction of relative efflux of chloride ions in presence of lithium (Li+) measured up to 300 seconds by using chloride-selective electrode; details: time <= 300.0 sec
[12] = system: Lipid bilayer; assay: Vesicular anionophoric activity in large unilamellar vesicle membrane derived from egg-yolk L-alpha-phosphatidylcholine assessed as induction of relative efflux of chloride ions in presence of sodium (Na+) measured up to 300 seconds by using chloride-selective electrode; details: time <= 300.0 sec
[13] = system: Lipid bilayer; assay: Vesicular anionophoric activity in large unilamellar vesicle membrane derived from egg-yolk L-alpha-phosphatidylcholine assessed as induction of relative efflux of chloride ions in presence of potassium (K+) measured up to 300 seconds by using chloride-selective electrode; details: time <= 300.0 sec
[14] = system: Lipid bilayer; assay: Vesicular anionophoric activity in large unilamellar vesicle membrane derived from egg-yolk L-alpha-phosphatidylcholine assessed as induction of relative efflux of chloride ions in presence of rubidium (Rb+) measured up to 300 seconds by using chloride-selective electrode; details: time <= 300.0 sec
[15] = system: Lipid bilayer; assay: Vesicular anionophoric activity in large unilamellar vesicle membrane derived from egg-yolk L-alpha-phosphatidylcholine assessed as induction of relative efflux of chloride ions in presence of cesium (Cs+) measured up to 300 seconds by using chloride-selective electrode; details: time <= 300.0 sec
[16] = system: Lipid bilayer; assay: Vesicular anionophoric activity in Bulky nitrobenzene membrane assessed as induction of relative efflux of chloride ions measured up to 100 hrs by using chloride-selective electrode
[17] = system: HepG2; assay: Disruption of homeostasis of chloride anions in golgi apparatus of human HepG2 cells assessed as increase in fluorescence intensity of 6-methoxy-1-(2-oxo-2-((4-sulfamoylphenyl)amino)ethyl)quinolin-1-ium Bromide measured after 12 hts by CLSM imaging analysis; type: functional, cell-based
[18] = system: HepG2; assay: Suppression of Golgi structural and functional protein expression in human HepG2 cells assessed as decrease in GM130 protein expression at 20 uM measured after 48 hrs incubation by Western blot analysis; type: cell-based
[19] = system: HepG2; assay: Suppression of Golgi structural and functional protein expression in human HepG2 cells assessed as decrease in GRASP55 protein expression at 20 uM measured after 48 hrs incubation by Western blot analysis; type: cell-based
[20] = system: HepG2; assay: Induction of chloride ion influx in human HepG2 cells assessed as effect on lysosomal chloride anions at […] measured after 12 hrs incubation by chloride-sensitive dye MQAE-MP based CLSM imaging analysis; type: functional, cell-based
[21] = system: HepG2; assay: Disruption of homeostasis of chloride anions in golgi apparatus of human HepG2 cells assessed as increase in fluorescence intensity of 6-methoxy-1-(2-oxo-2-((4-sulfamoylphenyl)amino)ethyl)quinolin-1-ium Bromide at 50 uM measured after 12 hts by CLSM imaging analysis; type: functional, cell-based
[22] = system: HepG2; assay: Suppression of Golgi structural and functional protein expression in human HepG2 cells assessed as decrease in GM130 protein expression at 5 to 20 uM measured after 48 hrs incubation by Western blot analysis; type: cell-based; details: dose 5-20 µM
[23] = system: HepG2; assay: Suppression of Golgi structural and functional protein expression in human HepG2 cells assessed as decrease in GRASP55 protein expression at 5 to 20 uM measured after 48 hrs incubation by Western blot analysis; type: cell-based; details: dose 5-20 µM

| Structure (SMILES) | IC50 [1] [µM] | IC50 [2] [µM] | IC50 [3] [µM] | IC50 [4] [µM] | IC50 [5] [µM] | EC50 [10] [mol%] | Activity [11] | Activity [12] | Activity [13] | Activity [14] | Activity [15] | Activity [16] | further results |
| --- | --- | --- | --- | --- | --- | --- | --- | --- | --- | --- | --- | --- | --- |
| COc1cccc2c1C(=O)c1c(O)c3c(c(O)c1C2=O)C[C@@](O)(C(=O)CO)C[C@@H]3O[C@H]1C[C@H](N)[C@H](O)[C@H](C)O1.Cl [DOXORUBICIN HYDROCHLORIDE] | 1.03 | 0.57 | 0.32 | 1.22 | 1.21 | – | – | – | – | – | – | – | viability at 5 µM [6]: 58.5%; Activity [7]: 16.8%; Activity [8]: 20.7%; Activity [9]: 3.96% |
| NS(=O)(=O)c1ccc(NC(=O)CCCCCNc2c(Nc3ccccc3)c(=O)c2=O)cc1 | 46.9 | 26.7 | 28.5 | 29.6 | 22.7 | 9.35 | Active | Active | Active | Active | Active | Active; Compound Exhibit Anion Transport Activity Most Probably Through Carrier Mechanism | EC50 [17]: 31.1 µM; Activity [18]: Active; Activity [19]: Active |
| NS(=O)(=O)c1ccc(NC(=O)CCCCCNc2c(Nc3ccc(C(F)(F)F)cc3)c(=O)c2=O)cc1 | 21.1 | 27.1 | > 50 | 24.7 | 19.2 | 2.93 | Active | Active | Active | Active | Active | Active; Compound Exhibit Anion Transport Activity Most Probably Through Carrier Mechanism | – |
| NS(=O)(=O)c1ccc(NC(=O)CCCCCNc2c(Nc3cc(Cl)cc(Cl)c3)c(=O)c2=O)cc1 | > 50 | 20.6 | > 50 | 40.9 | 39.1 | 3.44 | Active | Active | Active | Active | Active | Active; Compound Exhibit Anion Transport Activity Most Probably Through Carrier Mechanism | – |
| NS(=O)(=O)c1ccc(NC(=O)CCCCCNc2c(Nc3cc([N+](=O)[O-])cc([N+](=O)[O-])c3)c(=O)c2=O)cc1 | > 50 | > 50 | > 50 | > 50 | > 50 | 3.08 | Active | Active | Active | Active | Active | Active; Compound Exhibit Anion Transport Activity Most Probably Through Carrier Mechanism | – |
| COc1ccc2c(ccc[n+]2CC(=O)Nc2ccc(S(N)(=O)=O)cc2)c1 | – | – | – | – | – | – | – | – | – | – | – | – | Activity [20]: Active |

Second part, led by results:

| IC50 [1] [µM] | IC50 [2] [µM] | IC50 [3] [µM] | IC50 [4] [µM] | IC50 [5] [µM] | EC50 [10] [mol%] | Activity [11] | Activity [12] | Activity [13] | Activity [14] | Activity [15] | Structure (SMILES) | Activity [16] | further results |
| --- | --- | --- | --- | --- | --- | --- | --- | --- | --- | --- | --- | --- | --- |
| > 50 | 33.6 | 30.1 | 42.1 | 36.5 | 3.76 | Active | Active | Active | Active | Active | NS(=O)(=O)c1ccc(NC(=O)CCCCCNc2c(Nc3ccc(F)cc3)c(=O)c2=O)cc1 | Active; Compound Exhibit Anion Transport Activity Most Probably Through Carrier Mechanism | – |
| > 50 | > 50 | > 50 | > 50 | > 50 | 2.86 | Active | Active | Active | Active | Active | NS(=O)(=O)c1ccc(NC(=O)CCCCCNc2c(Nc3ccc([N+](=O)[O-])cc3)c(=O)c2=O)cc1 | Active; Compound Exhibit Anion Transport Activity Most Probably Through Carrier Mechanism | – |
| > 50 | 36.7 | 33 | 47.4 | 32.2 | > 10 | Active | Active | Active | Active | Active | Cc1ccc(Nc2c(NCCCCCC(=O)Nc3ccc(S(N)(=O)=O)cc3)c(=O)c2=O)cc1 | Active; Compound Exhibit Anion Transport Activity Most Probably Through Carrier Mechanism | – |
| 48.8 | 35.9 | 15.5 | 18.7 | 41 | 3.06 | Active | Active | Active | Active | Active | NS(=O)(=O)c1ccc(NC(=O)CCCCCNc2c(Nc3ccc(Br)cc3)c(=O)c2=O)cc1 | Active; Compound Exhibit Anion Transport Activity Most Probably Through Carrier Mechanism | – |
| > 50 | 38.1 | 37.1 | 45.1 | 31.8 | 4.57 | Active | Active | Active | Active | Active | N#Cc1ccc(Nc2c(NCCCCCC(=O)Nc3ccc(S(N)(=O)=O)cc3)c(=O)c2=O)cc1 | Active; Compound Exhibit Anion Transport Activity Most Probably Through Carrier Mechanism | – |
| > 50 | 31.9 | 23.6 | 33.8 | 25.6 | 5.78 | Active | Active | Active | Active | Active | NS(=O)(=O)c1ccc(NC(=O)CCCCCNc2c(Nc3ccc(Cl)cc3)c(=O)c2=O)cc1 | Active; Compound Exhibit Anion Transport Activity Most Probably Through Carrier Mechanism | – |
| > 50 | 41.9 | 39.7 | 49.5 | 44.7 | > 10 | Active | Active | Active | Active | Active | COc1ccc(Nc2c(NCCCCCC(=O)Nc3ccc(S(N)(=O)=O)cc3)c(=O)c2=O)cc1 | Active; Compound Exhibit Anion Transport Activity Most Probably Through Carrier Mechanism | Activity [21]: inactive; Activity [22]: inactive; Activity [23]: Active |
